Results taken from US9556158B2, “Fungicidal 3-[(pyridin-2-ylmethoxyimino)(phenyl)methyl]-2-substituted-1,2,4-oxadiazol-5(2H)-one derivatives” (BAYER INTELLECTUAL PROPERTY GMBH, priority 2011, dated 2017).
Read-outs that look alike come from different tables or passages of the source.

Tests used:
[1] = pH 2.7, LogP, HPLC on reversed phase columns, pH 2.7, 0.1% formic acid in water / acetonitrile gradient
Method: Measurement of log P values was performed according EEC directive 79/831 Annex V.A8 by HPLC (High Performance Liquid Chromatography) on reversed phase columns with the following method:
Measurement of LC-MS was done at pH 2.7 with 0.1% formic acid in water and with acetonitrile (contains 0.1% formic acid) as eluent with a linear gradient from 10% acetonitrile to 95% acetonitrile.
Calibration was done with not branched alkan2-ones (with 3 to 16 carbon atoms) with known log P-values (measurement of log P values using retention times with linear interpolation between successive alkanones). lambda-maX-values were determined using UV-spectra from 200 nm to 400 nm and the peak values of the chromatographic signals.

[2] = system: Phytophthora infestans; test: whole plant or invertebrate; assay type: in vivo; conditions: in Solanum lycopersicum, 120 h, read-out: % efficacy
[3] = compounds of formula (V), Table 2

Structure (SMILES) | chromatographic logP [1] | pest or weed control at 500 ppm [2] | chromatographic logP [1, 3]
Cc1cccc(C(=NOCc2cccc(NC(=O)C(C)(C)C)n2)c2nc(=O)on2C)c1 [Example 57] | 3.17 | 75% | –
COc1cccc(C(=NOCc2cccc(NC(=O)OCc3ccccc3)n2)c2nc(=O)on2C)c1 [Example 104] | 3.42 | 88% | –
COc1cccc(C(=NOCc2cccc(NC(=O)Cc3cccc(F)c3)n2)c2nc(=O)on2C)c1 [Example 105] | 3.09 | 75% | –
COc1cccc(C(=O)Nc2cccc(CON=C(c3cccc(OC)c3)c3nc(=O)o[nH]3)n2)c1 [Example 63] | 3.06 | 80% | –
CC(Oc1ccccc1)C(=O)Nc1cccc(CON=C(c2cccc(F)c2)c2nc(=O)on2C)n1 (centres unmarked) [Example 97] | 3.44 | 70% | –
O=C(Cc1cccc(F)c1)Nc1cccc(CON=C(c2cccc(F)c2)c2nc(=O)o[nH]2)n1 [Example 74] | 3.13 | 85% | –
CCCCOC(=O)Nc1cccc(CON=C(c2cccc(OC)c2)c2nc(=O)o[nH]2)n1 [Example 66] | 3.42 | 70% | –
Cc1cccc(C(=NOCc2cccc(NC(=O)c3ccc(F)cc3)n2)c2nc(=O)on2C)c1 [Example 87] | 3.33 | 75% | –
CCCCOC(=O)Nc1cccc(CON=C(c2cccc(C)c2)c2nc(=O)on2C)n1 [Example 58] | 3.69 | 75% | –
CCCCC(=O)Nc1cccc(CON=C(c2ccccc2)c2nc(=O)on2C)n1 [Example 12] | 2.9 | 100% | –
C#CCCOC(=O)Nc1cccc(CON=C(c2cccc(C)c2)c2nc(=O)on2C)n1 [Example 84] | 2.96 | 100% | –
Cc1cccc(C(=O)Nc2cccc(CON=C(c3cccc(F)c3)c3nc(=O)o[nH]3)n2)c1 [Example 75] | 3.35 | 98% | –
COc1cccc(C(=NOCc2cccc(NC(=O)c3ccc(C)cc3)n2)c2nc(=O)on2C)c1 [Example 106] | 3.27 | 90% | –
CCCCOC(=S)Nc1cccc(CON=C(c2ccccc2)c2nc(=O)on2C)n1 [Example 43] | 3.89 | 99% | –
C#CCC(C)OC(=O)Nc1cccc(CON=C(c2cccc(C)c2)c2nc(=O)on2C)n1 (centres unmarked) [Example 83] | 3.25 | 94% | –
CCCCSC(=S)Nc1cccc(CON=C(c2ccccc2)c2nc(=O)on2C)n1 [Example 38] | 4.15 | 93% | –
Cn1oc(=O)nc1C(=NOCc1cccc(N)n1)c1cccc(F)c1 [Example 23] | 0.99 | 98% | –
CCCCCOC(=O)Nc1cccc(CON=C(c2cccc(C)c2)c2nc(=O)on2C)n1 [Example 56] | 4.11 | 83% | –
CC#CCOC(=O)Nc1cccc(CON=C(c2cccc(C)c2)c2nc(=O)on2C)n1 [Example 107] | 3.13 | 93% | –
COc1ccc(CC(=O)Nc2cccc(CON=C(c3cccc(C)c3)c3nc(=O)on3C)n2)cc1 [Example 100] | 3.19 | 100% | –
CCCCCC(=O)Nc1cccc(CON=C(c2cccc(F)c2)c2nc(=O)o[nH]2)n1 [Example 68] | 3.37 | 98% | –
COc1cccc(C(=NOCc2cccc(NC(=O)OCCC(C)C)n2)c2nc(=O)on2C)c1 [Example 101] | 3.78 | 70% | –

Structure (SMILES) | chromatographic logP [1] | pest or weed control at 500 ppm [2] | chromatographic logP [1, 3]
Cc1cccc(C(=NOCc2cccc(NC(=O)OC(C)(C)C)n2)c2nc(=O)on2C)c1 [Example 21] | 3.65 | 100% | –
CCCCCCC(=O)Nc1cccc(CON=C(c2cccc(F)c2)c2nc(=O)o[nH]2)n1 [Example 70] | 3.76 | 80% | –
Cn1oc(=O)nc1C(=NOCc1cccc(NC(=O)SC(C)(C)C)n1)c1ccccc1 [Example 39] | 3.73 | 99% | –
COc1ccc(CC(=O)Nc2cccc(CON=C(c3cccc(F)c3)c3nc(=O)o[nH]3)n2)cc1 [Example 73] | 3 | 95% | –
Cc1cccc(C(=NOCc2cccc(N)n2)c2nc(=O)on2C)c1 [Example 31] | 1.17 | 93% | –
CCCCCOC(=O)Nc1cccc(CON=C(c2cccc(OC)c2)c2nc(=O)on2C)n1 [Example 102] | 3.83 | 98% | –
C#CCCOC(=O)Nc1cccc(CON=C(c2cccc(OC)c2)c2nc(=O)on2C)n1 [Example 96] | 2.75 | 90% | –
CCn1oc(=O)nc1/C(=N\OCc1cccc(NC(=O)OC(C)(C)C)n1)c1ccccc1 [Example 40, tert-butyl {6-[({[(Z)-(2-ethyl-5-oxo-2,5-dihydro-1,2,4-oxadiazol-3-yl)(phenyl)methylene]amino}oxy)methyl]pyridin-2-yl}carbamate] | 3.58 | 73% | –
Cc1cccc(C(=NOCc2cccc(NC(=O)CC(C)C)n2)c2nc(=O)on2C)c1 [Example 85] | 3.13 | 100% | –
Cc1cccc(C(=NOCc2cccc(NC(=O)OC3CCCCC3)n2)c2nc(=O)on2C)c1 [Example 30] | 4.11 | 78% | –
COc1cccc(C(=O)Nc2cccc(CON=C(c3cccc(F)c3)c3nc(=O)o[nH]3)n2)c1 [Example 64] | 3.13 | 85% | –
Cn1oc(=O)nc1C(=NOCc1cccc(NC(=O)OCCc2ccccc2)n1)c1cccc(F)c1 [Example 165] | 3.65 | – | –
CC(C)N(O)C(=N)C(=NOCc1cccc(NC(=O)OC(C)(C)C)n1)c1ccccc1 [Example V-09] | – | – | 2.05
CN(O)C(=N)C(=NOCc1cccc(NC(=O)OC(C)(C)C)n1)c1cccc(F)c1F [Example V-10] | – | – | 1.9
C#CCOC(=O)Nc1cccc(CON=C(c2ccccc2)c2nc(=O)on2C)n1 [Example 131] | 2.57 | – | –
COc1cccc(C(=NOCc2cccc(NC(=O)C(C)(C)C)n2)c2nc(=O)on2C)c1 [Example 93] | 2.92 | – | –
Cc1cccc(C(=O)Nc2cccc(CON=C(c3ccccc3)c3nc(=O)on3C)n2)c1 [Example 128] | 3.27 | – | –
CCCCC(C)C(=O)Nc1cccc(CON=C(c2ccccc2)c2nc(=O)on2C)n1 (centres unmarked) [Example 144] | 3.55 | – | –
COc1ccc(CC(=O)Nc2cccc(CON=C(c3cccc(F)c3F)c3nc(=O)on3C)n2)cc1 [Example 191] | 2.98 | – | –
Cn1oc(=O)nc1C(=NOCc1cccc(NC(=O)OCCCC2CCCCC2)n1)c1ccccc1 [Example 153] | 5.06 | – | –
COc1cccc(C(=NOCc2cccc(N)n2)c2nc(=O)on2C)c1 [Example 24] | 1.03 | – | –
Cc1ccc(C(=O)Nc2cccc(CON=C(c3ccccc3)c3nc(=O)on3C)n2)cc1 [Example 159] | 3.23 | – | –

Structure (SMILES) | chromatographic logP [1] | pest or weed control at 500 ppm [2] | chromatographic logP [1, 3]
Cn1oc(=O)nc1C(=NOCc1cccc(NC(=O)OCCCCCl)n1)c1ccccc1 [Example 143] | 3.27 | – | –
Cn1oc(=O)nc1C(=NOCc1cccc(NC(=O)OC(C)(C)C)n1)c1cccc(F)c1F [Example 113] | 3.39 | – | –
Cn1oc(=O)nc1C(=NOCc1cccc(NC(=O)OCC(C)(C)C)n1)c1ccccc1 [Example 121] | 3.7 | – | –
COc1cccc(C(=NOCc2cccc(NC(=O)OCCc3ccccc3)n2)c2nc(=O)on2C)c1 [Example 162] | 3.61 | – | –
Cn1oc(=O)nc1C(=NOCc1cccc(NC(=O)OCCC2CCCC2)n1)c1ccccc1 [Example 118] | 4.26 | – | –
Cn1oc(=O)nc1C(=NOCc1cccc(NC(=O)OCC2CC2)n1)c1ccccc1 [Example 180] | 3.04 | – | –
COc1cccc(C(=O)Nc2cccc(CON=C(c3cccc(C)c3)c3nc(=O)on3C)n2)c1 [Example 88] | 3.31 | – | –
Cn1oc(=O)nc1C(=NOCc1cccc(NC(=O)c2ccccc2)n1)c1cccc(F)c1 [Example 89] | 3 | – | –
Cn1oc(=O)nc1C(=NOCc1cccc(NC(=O)Cc2cccs2)n1)c1ccccc1 [Example 135] | 2.86 | – | –
CC(Oc1ccccc1)C(=O)Nc1cccc(CON=C(c2ccccc2)c2nc(=O)on2C)n1 (centres unmarked) [Example 140] | 3.35 | – | –
CCCCOC(=O)Nc1cccc(CON=C(c2cccc(F)c2F)c2nc(=O)on2C)n1 [Example 188] | 3.46 | – | –
Cn1oc(=O)nc1C(=NOCc1cccc(NC(=O)OCC2CCCCC2)n1)c1ccccc1 [Example 127] | 4.24 | – | –
Cn1oc(=O)nc1C(=NOCc1cccc(NC(=O)C2CCCC2)n1)c1ccccc1 [Example 117] | 2.98 | – | –
Cc1cccc(C(=NOCc2cccc(NC(=O)OCc3ccccc3)n2)c2nc(=O)on2C)c1 [Example 167] | 3.68 | – | –
Cn1oc(=O)nc1C(=NOCc1cccc(NC(=O)OCc2ccccc2)n1)c1cccc(F)c1 [Example 163] | 3.5 | – | –
CCCCCC(=O)Nc1cccc(CON=C(c2ccccc2)c2nc(=O)on2CC)n1 [Example 174] | 3.52 | – | –
COc1cccc(C(=O)Nc2cccc(CON=C(c3ccccc3)c3nc(=O)on3C)n2)c1 [Example 132] | 3.02 | – | –
Cn1oc(=O)nc1C(=NOCc1cccc(NC(=O)c2ccc(F)cc2)n1)c1cccc(F)c1 [Example 92] | 3.15 | – | –
CCC#CCOC(=O)Nc1cccc(CON=C(c2ccccc2)c2nc(=O)on2C)n1 [Example 137] | 3.21 | – | –
COc1cccc(C(=NOCc2cccc(NC(=O)c3ccccc3)n2)c2nc(=O)o[nH]2)c1 [Example 67] | 2.96 | – | –
Cc1cccc(C(=NOCc2cccc(NC(=O)OC(C)(C)C)n2)C(=N)N(C)O)c1 [Example V-04] | – | – | 1.93
